Earlier results on 2 compounds are cited in US12290493B2 (Advanced Respiratory Technologies, Inc., priority 2017, dated 2025).

Structures are written as SMILES.

Series [1] relates to beta adrenergic receptors.
The conditions of series [2]: fraction of the l-epinephrine effect.

For `CNCC(=O)c1ccc(O)c(O)c1` [adrenalone], in series [1], the beta adrenergic activity entry is “little if any beta adrenergic activity”. `CNC[C@H](O)c1ccc(O)c(O)c1` [d-epinephrine]: the “pressor effect relative to that of l-epinephrine” value in series [2] is “about one-fifteenth”.
